The experiment has as its target T1, proTNF-α convertase enzyme (TACE) (Homo sapiens, UniProt P78536).
T1 construct: a partially purified, isolated enzyme assay, the enzyme being obtained from the membranes of TBP-1; endogenous in cells
Briefly: Isolated enzyme assay, proTNF-α convertase (TACE), fluorogenic peptide substrate. It counts as biochemical. Conditions: partially purified enzyme from membranes of TBP-1; 26° C. for 4 hours; read-out: concentration of compound that gave 50% inhibition of TACE. On the procedure: Recombinant human proMMP13 may be expressed and purified as described by Knauper et al. [V. Knauper et al., (1996) The Biochemical Journal 271:1544-1550 (1996)]. The purified enzyme can be used to monitor inhibitors of activity as follows: purified proMMP13 is activated using lmM amino phenyl mercuric […] (APMA), 20 hours at 21° C.; the activated MMP13 (11.25 ng per assay) is incubated for 4-5 hours at 35° C. in assay buffer (0.1M Tris-HCl, pH 7.5 containing 0.1M NaCl, 20 mM CaCl2, 0.02 mM ZnCl and 0.05% (w/v) Brij 35 using the synthetic substrate 7-methoxycoumarin-4-yl)acetyl.Pro.Leu.Gly.Leu.N-3-(2,4-dinitrophenyl)-L2,3-diaminopropionyl.Ala.Arg.NH2 in the presence or absence of inhibitors. Activity is determined by measuring the fluorescence at λex 328 nm and λem 393 nm. Percent inhibition is calculated as follows: % Inhibition is equal to the […].
The ability of the compounds to inhibit proTNF-α convertase enzyme (TACE) may be assessed using a partially purified, isolated enzyme assay, the enzyme being obtained from the membranes of TBP-1 as described by K. M. Mohler et al., (1994) Nature 370:218-220. […] The amount of inhibition is determined as for MMP13 except λex 485 nm and λem 538 nm were used. […]

T1 sequence (P78536 215-824): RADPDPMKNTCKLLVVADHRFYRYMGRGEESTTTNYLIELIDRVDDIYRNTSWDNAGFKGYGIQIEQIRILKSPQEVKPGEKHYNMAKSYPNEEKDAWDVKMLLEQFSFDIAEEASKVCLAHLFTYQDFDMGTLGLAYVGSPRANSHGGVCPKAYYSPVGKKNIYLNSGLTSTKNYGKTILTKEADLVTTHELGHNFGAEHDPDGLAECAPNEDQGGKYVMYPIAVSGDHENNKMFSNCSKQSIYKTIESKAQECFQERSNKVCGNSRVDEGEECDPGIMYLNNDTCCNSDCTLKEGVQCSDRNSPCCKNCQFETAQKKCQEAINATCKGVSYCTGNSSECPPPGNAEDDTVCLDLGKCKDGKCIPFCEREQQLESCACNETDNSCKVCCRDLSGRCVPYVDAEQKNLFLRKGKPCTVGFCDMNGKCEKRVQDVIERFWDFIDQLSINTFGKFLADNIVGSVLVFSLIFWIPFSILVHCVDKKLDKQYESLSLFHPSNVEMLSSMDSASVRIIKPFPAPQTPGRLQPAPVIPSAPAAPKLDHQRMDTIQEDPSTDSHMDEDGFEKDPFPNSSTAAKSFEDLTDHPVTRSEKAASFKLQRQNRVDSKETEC

As for `Cc1cc(COc2ccc(C3(C)CCN(CC4(c5ccccc5)NC(=O)NC4=O)C3=O)cc2)c2ccccc2n1` (stereo not shown) [compound 6, 5-{3-Methyl-3-[4-(2-methylquinolin-4-ylmethoxy)phenyl]-2oxopyrrolidin-1-ylmethyl}-5-phenylimidazolidine-2,4-dione], the IC50 was determined as 130 nM.

Source of the values: patent US20060063818A1, “Hydantoin derivatives and deren verwendung als tace inhibitoren” (priority 2002, published 2006).
